system: AR 1.0 cells; test: Drug accumulation assay (tritiated daunorubicin) in MDR resistant AR 1.0 cells; assay type: cell-based; settings: Mus musculus, 1 h, DNR 2 μM, 100% = accumulation with 100 μM Verapamil, read-out: MAX accumulation (% 100 μm VRP)
Procedure: The EMT6 mouse mammary carcinoma cell line and the MDR resistant subline AR 1.0 were cultured in RPMI 1640 medium containing 10% foetal calf serum and 2 mM glutamine at 37° C. in 5% CO2 . Cells were passaged between 1 in 200 and 1 in 2000 in the case of the parental cell line and between 1 in 20 and 1 in 200 in the case of the MDR resistant subline, after trypsinisation (0.25% trypsin, 0.2 gl^-1, EDTA).
AR 1.0 cells were seeded into 96 well opaque culture plates (Canberra Packard). The assay medium contained a mixture of tritiated Daunorubicin (DNR), a cytotoxic agent, and unlabelled DNR (0.25μ Ci/ml; 2 μM). Compounds of formula A were serially diluted in assay medium over a range of concentrations from 100 nM to 100 μM. The cells were incubated at 37° C. for 1 hr before washing and counting of cell associated radioactivity. Each assay included a titration of the known resistance modifying agent Verapamil as positive control. Results were expressed as % maximum accumulation where 100% accumulation is that observed in the presence of 100 μM Verapamil.

Structure (SMILES)	Emax [%]
COc1ccc(/C=c2\[nH]c(=O)/c(=C/c3ccccc3)n(CC(=O)N3CCCC3)c2=O)cc1 [Compound 1526, N,N-Tetramethylene-(3Z,6Z)-6-benzylidene-3-(4-methoxybenzylidene)-2,5-dioxo-1-piperazinylacetamide]	23.3
COc1ccc(/C=c2/c(=O)[nH]/c(=C\c3ccccc3)c(=O)n2CC(=O)N(C)C)cc1 [Compound 1614, N,N,-Dimethyl-(3Z,6Z)-3-benzylidene-6-(4-methoxybenzylidene)-2,5-dioxo-1-piperazinylacetamide]	25
COc1ccc(/C=c2\nc(OCC3CC3)/c(=C/c3ccccc3)n(C)c2=O)cc1 [Compound 1745, (3Z,6Z)-6-Benzylidene-5-cyclopropylmethoxy-3-(4-methoxybenzylidene)-1-methyl-3,6-dihydro-2-pyrazinone]	35
COc1n/c(=C\c2ccccc2)c(=O)n(C)/c1=C\c1ccccc1 [Compound 1771]	60
Cn1c(=O)/c(=C/c2ccccc2)nc(OCC2CCCCC2)/c1=C/c1ccccc1 [Compound 1780]	20
CCOc1n/c(=C\c2ccccc2)c(=O)n(C)/c1=C\c1ccccc1 [Compound 1801, (3Z,6Z)-3,6-Dibenzylidene-5-ethoxy-1-methyl-3,6-dihydro-2-pyrazinone]	40
Cn1c(=O)/c(=C/c2ccccc2)n(CCBr)c(=O)/c1=C/c1ccccc1 [Compound 1803, (3Z,6Z)-3,6-Dibenzylidene-1-(2-bromoethyl)-4-methyl-2,5-piperazinedione]	50
CC(C)Oc1n/c(=C\c2ccccc2)c(=O)n(C)/c1=C\c1ccccc1 [Compound 1819, (3Z,6Z)-3,6-Dibenzylidene-5-isopropoxy-1-methyl-3,6-dihydro-2-pyrazinone]	23
Cn1c(=O)/c(=C/c2ccccc2)nc(OCCc2ccccc2)/c1=C/c1ccccc1 [Compound 1820, (3Z,6Z)-3,6-Dibenzylidene-1-methyl-5-(2-phenethoxy)-3,6-dihydro-2-pyrazinone]	34
CC(C)COc1n/c(=C\c2ccccc2)c(=O)n(C)/c1=C\c1ccccc1 [Compound 1821, (3Z,6Z)-3,6-Dibenzylidene-5-isobutoxy-1-methyl-3,6-dihydro-2-pyrazinone]	35
C=CCCOc1n/c(=C\c2ccccc2)c(=O)n(C)/c1=C\c1ccccc1 [Compound 1826, (3Z,6Z)-3,6-Dibenzylidene-5-(3-butenyloxy)-1-methyl-3,6-dihydro-2-pyrazinone]	40
Cn1c(=O)/c(=C/c2ccccc2)nc(OCC#N)/c1=C/c1ccccc1 [Compound 1827, (3Z,6Z)-3,6-Dibenzylidene-1-methyl-2-oxo-1,2,3,6-tetrahydro-5-pyrazinyloxyacetonitrile]	35
CC=CCOc1n/c(=C\c2ccccc2)c(=O)n(C)/c1=C\c1ccccc1 [Compound 1861, (3Z,6Z)-3,6-Dibenzylidene-5-(2-butenyloxy)-1-methyl-3,6-dihydro-2-pyrazinone]	46
C=CCOc1n/c(=C\c2ccccc2)c(=O)n(C)/c1=C\c1ccccc1 [Compound 1864, (3Z,6Z)-5-Allyloxy-3,6-dibenzylidene-1-methyl-3,6-dihydro-2-pyrazinone]	45
CC(=O)OCCCCOc1n/c(=C\c2ccccc2)c(=O)n(C)/c1=C\c1ccccc1 [Compound 1904, (3Z,6Z)-5-(4-Acetoxybutoxy)-3,6-dibenzylidene-1-methyl-3,6-dihydro-2-pyrazinone]	47
Cn1c(=O)/c(=C/c2ccccc2)nc(OCN2C(=O)c3ccccc3C2=O)/c1=C/c1ccccc1 [Compound 1905, (3Z,6Z)-3,6-Dibenzylidene-1-methyl-5-phthalimidomethoxy-3,6-dihydro-2-pyrazinone]	29
O=c1/c(=C/c2ccccc2)n(Cc2ccccc2)c(=O)/c(=C/c2ccccc2)n1Cc1ccccc1 [Compound 1906, (3Z,6Z)-1,4-Dibenzyl-3,6-dibenzylidene-2,5-piperazinedione]	34

same assay, conditions: Mus musculus, DNR 2 μM, 37° C., 1 hr

Structure (SMILES)	IC50 [µM]
COc1n/c(=C\c2ccccc2)c(=O)n(C)/c1=C\c1ccccc1 [Compound 1771]	70
Cn1c(=O)/c(=C/c2ccccc2)n(CCBr)c(=O)/c1=C/c1ccccc1 [Compound 1803, (3Z,6Z)-3,6-Dibenzylidene-1-(2-bromoethyl)-4-methyl-2,5-piperazinedione]	80
Cn1c(=O)/c(=C/c2ccccc2)n(CCO)c(=O)/c1=C/c1ccccc1 [Compound 1854, (3Z,6Z)-3,6-Dibenzylidene-1-(2-hydroxyethyl)-4-methyl-2,5-piperazinedione]	35
Cn1c(=O)/c(=C/c2ccccc2)n(CCc2ccccc2)c(=O)/c1=C/c1ccccc1 [Compound 1856, (3Z,6Z)-3,6-Dibenzylidene-4-methyl-1-phenethyl-2,5-piperazinedione]	15
CC(C)Cn1c(=O)/c(=C/c2ccccc2)n(C)c(=O)/c1=C/c1ccccc1 [Compound 1857, (3Z,6Z)-3,6-Dibenzylidene-1-isobutyl-4-methyl-2,5-piperazinedione]	10
Cn1c(=O)/c(=C/c2ccccc2)n(CC#N)c(=O)/c1=C/c1ccccc1 [Compound 1858, ((3Z,6Z)-3,6-Dibenzylidene-4-methyl-2,5-dioxo-1-piperazinyl)acetonitrile]	60
Cn1c(=O)/c(=C/c2ccccc2)nc(OCC=CCBr)/c1=C/c1ccccc1 [Compound 1859, (3Z,6Z)-3,6-Dibenzylidene-5-(4-bromo-2-butenyloxy)-1-methyl-3,6-dihydro-2-pyrazinone]	15
Cn1c(=O)/c(=C/c2ccccc2)n(CC=CCBr)c(=O)/c1=C/c1ccccc1 [Compound 1860]	10
CC=CCn1c(=O)/c(=C/c2ccccc2)n(C)c(=O)/c1=C/c1ccccc1 [Compound 1862, (3Z,6Z)-3,6-Dibenzylidene-1-(but-2-enyl)-4-methyl-2,5-piperazinedione]	8
Cn1c(=O)/c(=C/c2ccccc2)nc(OCCO)/c1=C/c1ccccc1 [Compound 1863, (3Z,6Z)-3,6-Dibenzylidene-5-(2-hydroxyethoxy)-1-methyl-3,6-dihydro-2-pyrazinone]	10
COc1ccc(/C=c2/c(=O)n(Cc3ccccc3)/c(=C\c3c(Cl)cccc3Cl)c(=O)n2C)cc1 [Compound 1878, (3Z,6Z)-1-Benzyl-6-(2,6-dichlorobenzylidene)-3-(4-methoxybenzylidene)-4-methyl-2,5-piperazinedione]	5
COc1ccc(/C=c2/c(=O)n(C)/c(=C\c3ccccc3[N+](=O)[O-])c(=O)n2Cc2ccccc2)cc1 [Compound 1879, (3Z,6Z)-1-Benzyl-6-(4-methoxybenzylidene)-4-methyl-3-(2-nitrobenzylidene)-2,5-piperazinedione]	2
CN(C)CCCOc1n/c(=C\c2ccccc2)c(=O)n(C)/c1=C\c1ccccc1 [Compound 1900, (3Z,6Z)-3,6-Dibenzylidene-5-(3-dimethylaminopropoxy)-1-methyl-3,6-dihydro-2-pyrazinone]	3
Cn1c(=O)/c(=C/c2ccccc2)nc(OCc2ccncc2)/c1=C/c1ccccc1 [Compound 1901, (3Z,6Z)-3,6-Dibenzylidene-1-methyl-5-(4-pyridyl)methoxy-3,6-dihydro-2-pyrazinone]	12
Cn1c(=O)/c(=C/c2ccccc2)nc(OCCN2C(=O)c3ccccc3C2=O)/c1=C/c1ccccc1 [Compound 1902, (3Z,6Z)-3,6-Dibenzylidene-1-methyl-5-(2-phthalimidoethoxy)-3,6-dihydro-2-pyrazinone]	11
Cn1c(=O)/c(=C/c2ccccc2)nc(OCCCCN2C(=O)c3ccccc3C2=O)/c1=C/c1ccccc1 [Compound 1903, (3Z,6Z)-3,6-Dibenzylidene-1-methyl-5-(4-phthalimidobutoxy)-3,6-dihydro-2-pyrazinone]	9

Source: patent US5852018A, “Pharmaceutical piperazine compounds” (Xenova Limited, priority 1994, dated 1998)
